Reference: PubChem BioAssay (NCI)
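Five concentrations, 48 hours, 96-well plates. At the GI50, growth is halved. TGI marks complete inhibition of growth.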

What was measured:
Test in all cases: growth of human tumour cells (NCI), 48 h
EKVX NSCLC = system: EKVX NSCLC
HCT-116 colon = system: HCT-116 colon
HCT-15 colon = system: HCT-15 colon
OVCAR-8 ovarian = system: OVCAR-8 ovarian
RPMI-8226 leukemia = system: RPMI-8226 leukemia
SF-295 CNS = system: SF-295 CNS
SN12C renal = system: SN12C renal
SR leukemia = system: SR leukemia
HOP-92 NSCLC = system: HOP-92 NSCLC
NCI-H23 lung = system: NCI-H23 lung

SMILES	TGI (EKVX NSCLC) [µM]	TGI (HCT-116 colon) [µM]	TGI (HCT-15 colon) [µM]	TGI (OVCAR-8 ovarian) [µM]	TGI (RPMI-8226 leukemia) [µM]	TGI (SF-295 CNS) [µM]	TGI (SN12C renal) [µM]	TGI (SR leukemia) [µM]	TGI (HOP-92 NSCLC) [µM]	TGI (NCI-H23 lung) [µM]	GI50 (HCT-116 colon) [µM]	GI50 (HCT-15 colon) [µM]	GI50 (HOP-92 NSCLC) [µM]	GI50 (NCI-H23 lung) [µM]	GI50 (OVCAR-8 ovarian) [µM]	GI50 (RPMI-8226 leukemia) [µM]	GI50 (SF-295 CNS) [µM]	GI50 (SN12C renal) [µM]	GI50 (SR leukemia) [µM]
CC(/C(=N\Nc1ccccc1)c1ccc(O)cc1)C1C(=O)Oc2ccccc21 (configuration not stated)	> 100	> 100	> 100	> 100	> 100	> 100	> 100	> 100											
N#Cc1c2c(c(N=P(c3ccccc3)(c3ccccc3)c3ccccc3)n3c1nc1ccccc13)CCCC2	> 100	> 100	> 100	> 100	61.6	> 100	39.6												
Cc1ccc(S(=O)(=O)N2CCSCCN(S(=O)(=O)c3ccc(C)cc3)CCN(S(=O)(=O)c3ccc(C)cc3)CC2)cc1	> 100	> 100		> 100	> 100	> 100	> 100		9.06	> 100									
COc1ccc(C(=O)c2cc(OC)c(OC)c(OC)c2)cc1/C=C/C(=O)c1ccc(OC)c(OC)c1		> 100	> 100	> 100	11.8	> 100	> 100	10.2	58	> 100	0.416	0.428	1.69	4.13	1.85	0.587	5.26	1.65	0.29
Cc1ccc2ncnc(N(CC(C)C)CC(C)C)c2c1		27.7	34.6	31.9	5.13	32.7	38.7	26.3	24	28.5		17.9	8.36	11.1	12.1	1.61	16.7	17.9	7.76
CC1SC2=NC3=C(c4ccccc4C3=O)C(c3ccc(Cl)cc3)N2C1=O (configuration not stated)	> 100		> 100	> 100	> 100	> 100	> 100		> 100	> 100									
Cn1cc(C2=C(c3cn(C)c4c([N+](=O)[O-])cccc34)C(=O)NC2=O)c2ccccc21		> 25	> 25	> 25	> 25	> 25	> 25	> 25	> 25	> 25	> 25	> 25	> 25	> 25	> 25	> 25	> 25	> 25	> 25
Cc1ccccc1-n1ncc(C(=O)c2ccccc2)c1N		> 25	> 25	> 25	> 25	> 25	> 25	> 25	> 25	> 25	> 25	> 25	4.2	> 25	> 25	> 25	> 25	> 25	> 25
